Source: PubChem BioAssay AID1963977 (Molecular Pharmacology Branch, DTP, NCI, 2024)
Several values for one entry are separate records, joined by “and”; a condition that tells them apart may be missing. Equal values may be shown once.

Tested on: 624824-186-R-J3-PDC multicell spheroids, viability
Assay: Anticancer human tumor 624824-186-R-J3-PDC patient-derived colon adenocarcinoma cell line growth inhibition [PI3K]
Conditions: for viability, T/C: stronger effect = lower value
Description: Combinatorial screen of targeted agents with the PI3K inhibitors inavolisib, alpelisib, duvelisib, and copanlisib in multi-cell type tumor spheroids
A high-throughput screen of multi-cell type tumor spheroids was designed to identify active combinations of targeted small molecules and PI3K pathway inhibitors. Complex spheroids include a stromal component modeled by human endothelial cells (HUVEC) and fibroblasts modeled by human mesenchymal stem cells (MSCs). The concentration ranges selected for each drug and investigational agent were based upon clinically achievable concentrations if the clinical Cmax of the agent was known.
Compounds. The drugs and investigational agents: inavolisib (NSC800729), alpelisib (NSC765974), duvelisib (NSC772469), copanlisib (NSC816437), ipatasertib (NSC767898), afuresertib (NSC778305), talazoparib (NSC767125), sapanisertib (NSC764658), selumetinib (NSC741078), tovorafenib (DAY101, NSC766906), vemurafenib (NSC761431), ravoxertinib (NSC781343), sotorasib (NSC818433), MRTX1133 (NSC 836407), abemaciclib (NSC 768073), palbociclib (NSC758247), venetoclax (NSC 766270), SY5609 (NSC837396), enzalutamide (NSC755605), and darolutamide (NSC825331), were obtained from the National Cancer Institute (NCI) Developmental Therapeutics Program Chemical Repository. The FDA-approved anticancer drug set is available from the NCI Developmental Therapeutics Program. […] The stock solutions were prepared in dimethyl sulfoxide (DMSO, Sigma-Aldrich, St. Louis, MO, cat. D2650) at 800-fold the tested concentration and stored at -70 degrees C prior to their use. All drugs and investigational agents were tested over a range starting from a high concentration at or near the clinical Cmax and decreasing in half-log increments. If the clinical Cmax for an agent had not been determined, the highest concentration tested was 10 microM.
Cell Culture. All cells were maintained in an incubator at 37 degrees C and 5% CO2 with 95% humidity. The PDC lines were cultured according to standard operating procedures established by the NCI PDMR (https://pdmr.cancer.gov/sops/default.htm). All PDCs were thawed and cultured in Matrigel-coated flasks prepared with a working solution of 1X Ham's F-12 nutrient mix, without supplementation (Invitrogen, Waltham, MA, cat. 11765054), 100 U/mL penicillin-streptomycin (Invitrogen, cat. 15140122), and 2.5% Matrigel (Corning Inc., Corning, NY, cat. 354248) for the first three passages. The 354836-022-R-J1-PDC, 475296-252-R-J1-PDC, and 997726-040-R-J2-PDC lines were cultured in 6A media, which includes advanced DMEM/F-12 (Thermo Fisher Scientific, cat. 12634028), 10 mM HEPES (Thermo Fisher Scientific, cat. 15630080), 1X GlutaMAX supplement (Thermo Fisher Scientific, cat. 35050061), 0.1 mg/mL primocin (InvivoGen, San Diego, CA, cat. ant-pm-2), 10% defined fetal bovine serum, heat inactivated (HyClone Laboratories Inc., Logan, UT, cat. SH30070.03HI), 50% L-WRN conditioned media (ATCC, cat. CRL-3276), 1.25 mM N-Acetyl-L-cysteine (Sigma-Aldrich, cat. A9165), 10 mM nicotinamide (Sigma-Aldrich, cat. N0636), 1X B-27 supplement (Thermo Fisher Scientific, cat. 17504044), 1X N-2 supplement (Thermo Fisher Scientific, cat. 17502048), and 10 microM Y-27632 dihydrochloride (Tocris Bioscience, Bristol, United Kingdom, cat. 1254). The 624824-186-R-J2-PDC line was cultured in 6C/Colon 1B media, which includes all 6A media components plus 50 ng/mL human EGF recombinant protein (Thermo Fisher Scientific, cat. PHG0311). […]
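Note: spheroids exposed to agents for seven days before luminescence read.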
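Throughout, for viability, T/C: luminescent signal used as a stand-in for spheroid viability; percent viability relative to DMSO vehicle control wells taken as 100%.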

IC50 (curve of compound) | IC50 (compound alone, run of 04/24/2023) | IC50 (compound alone, run of 04/25/2023) | Structure (SMILES) | viability, T/C (compound 0.0316 µM) | viability, T/C (compound 0.1 µM) | viability, T/C (compound 0.316 µM) | viability, T/C (compound 1 µM) | viability, T/C (compound 3.16 µM) | viability, T/C (compound 10 µM) | viability, T/C (compound 0.000316 µM) | viability, T/C (compound 0.001 µM) | viability, T/C (compound 0.00316 µM) | viability, T/C (compound 0.01 µM)
> 10 µM | – | – | C=CC(=O)N1CCN(c2nc(=O)n(-c3c(C)ccnc3C(C)C)c3nc(-c4c(O)cccc4F)c(F)cc23)C(C)C1 (stereo not given) | 103% [middle of 4 runs] | 94.8% [middle of 4 runs] | 103% [middle of 4 runs] | 94.3% [middle of 4 runs] | 104% [middle of 4 runs] | 106% and 108% (3×) | – | – | – | –
> 0.1 µM | – | – | CC(=O)c1c(C)c2cnc(Nc3ccc(N4CCNCC4)cn3)nc2n(C2CCCC2)c1=O | 108% [middle of 4 runs] | 105% [middle of 4 runs] | – | – | – | – | 101% [middle of 4 runs] | 103% [middle of 4 runs] | 104% [middle of 4 runs] | 98.7% [middle of 4 runs]
> 10 µM and 6.5 µM | – | – | CC(C)NCC(C(=O)N1CCN(c2ncnc3c2C(C)CC3O)CC1)c1ccc(Cl)cc1 (stereo not given) | 101% [middle of 4 runs] | 101% [middle of 4 runs] | 102% (2×) and 100% and 105% | 82% [middle of 4 runs] | 67.8% [middle of 4 runs] | 57.8% [middle of 4 runs] | – | – | – | –
> 0.1 µM | – | – | CC(C)n1nc(-c2ccc3oc(N)nc3c2)c2c(N)ncnc21 | 99.4% [middle of 4 runs] | 64.2% [middle of 4 runs] | – | – | – | – | 103% [middle of 4 runs] | 104% and 97.2% and 101% (2×) | 106% [middle of 4 runs] | 108% [middle of 4 runs]
> 10 µM | – | – | CC(Cn1ccc(-c2ccc(C#N)c(Cl)c2)n1)NC(=O)c1cc(C(C)O)[nH]n1 (stereo not given) | 96.5% [middle of 4 runs] | 97.2% [middle of 4 runs] | 105% [middle of 4 runs] | 95.5% [middle of 4 runs] | 99.4% [middle of 4 runs] | 104% [middle of 4 runs] | – | – | – | –
– | > 1 µM | – | CC(Nc1ccc2c(c1)OCCn1cc(N3C(=O)OCC3C(F)F)nc1-2)C(N)=O (stereo not given) | 108% [middle of 7 runs] | 109% [middle of 7 runs] | 100% [middle of 7 runs] | 88.5% [middle of 7 runs] | – | – | – | – | 101% [middle of 7 runs] | 103% [middle of 7 runs]
– | – | > 10 µM | CC(Nc1ncnc2nc[nH]c12)c1cc2cccc(Cl)c2c(=O)n1-c1ccccc1 (stereo not given) | 103% [middle of 8 runs] | – | 106% [middle of 8 runs] | 108% [middle of 8 runs] | 106% [middle of 8 runs] | 94.7% [middle of 8 runs] | – | – | – | –
– | – | – | CC1(C)CCC(CN2CCN(c3ccc(C(=O)NS(=O)(=O)c4ccc(NCC5CCOCC5)c([N+](=O)[O-])c4)c(Oc4cnc5[nH]ccc5c4)c3)CC2)=C(c2ccc(Cl)cc2)C1 | 101% [middle of 4 runs] | 99.1% [middle of 4 runs] | 103% (2×) and 102% and 107% | 105% [middle of 4 runs] | 110% [middle of 4 runs] | – | – | – | – | –
5.64 µM [middle of 4 runs] | – | – | CC1(C)CCC(Nc2ncc(C(F)(F)F)c(-c3c[nH]c4c(P(C)(C)=O)c(C#N)ccc34)n2)CN1 (stereo not given) | 106% [middle of 4 runs] | 87.3% [middle of 4 runs] | 96.5% [middle of 4 runs] | 96.9% [middle of 4 runs] | 100% [middle of 4 runs] | 4.6% [middle of 4 runs] | – | – | – | –
